What was measured:
[1] = system: AGE formation during uninterrupted glycation of human methemoglobin (Hb) by ribose; assay: Uninterrupted ribose glycation assay, Hb; assay type: biochemical; details: 0.05 M ribose, 3 weeks
Description: ELISA detection of AGE products. The general method of Engvall (1981, Methods Enzymol. 70:419-439) was used to perform the ELISA. Typically, glycated protein samples were diluted to approximately 1.5 ug/ml in 0.1 M sodium carbonate buffer of pH 9.5 to 9.7. The protein was coated overnight at room temperature onto 96-well polystyrene plates by pippetting 200 ul of the protein solution in each well (0.3 ug/well). After coating, the protein was washed from the wells with a saline solution containing 0.05% Tween-20. The wells were then blocked with 200 ul of 1% casein in carbonate buffer for 2 h at 37° C. followed by washing. […] In order to minimize background readings, antibodies R479 used to detect glycated RNase were raised against glycated BSA, and antibodies R618 used to detect glycated BSA and glycated Hb were raised against glycated RNase. […] The p-nitrophenylphosphate substrate solution was then added (200 ul/well) to the plates, with the absorbance of the released p-nitrophenolate being monitored at 410 nm with a Dynatech MR 4000 microplate reader.
Uninterrupted ribose glycation assays Bovine serum albumin, ribonuclease A, and human hemoglobin were incubated with ribose at 37° C. in 0.4 M sodium phosphate buffer of pH 7.5 containing 0.02% sodium azide. […] Aliquots were taken and immediately frozen until analyzed by ELISA at the conclusion of the reaction. […]

[2] = Metabolic conversions and bioavailability of pyridoxamine, plasma B6 vitamers by HPLC; assay type: in vivo, rat; details: 25 mg/kg/day pyridoxamine in drinking water, after 48 hours; n=4
Description: In addition to the glycated albumin studies, we carried out an investigation of the bioavailability of pyridoxamine when introduced through drinking water, and its possible redistribution into the vitamin B6 pool. Determination of the common B6 vitamers in plasma was carried out by HPLC methods as described below. Rats (n=4) were kept in standard cages as in the other experiments and were given pyridoxamine at 25 mg/kg/day for 48 hours, following which blood samples were withdrawn intra-cardially for serum analysis of the B6 vitamers. The concentrations were compared to endogenous B6 vitamer levels of control rats.
The procedures of Sampson and O° Connor (Nutrition Res. 9:259-272 (1989)) and Sharma and Dakshinamurti (Sampson and O° Connor J Nutr 119:1940-8, (1989) Sharma and Dakshinamurti, J Chromatogr 578:45-51, (1992)) were followed, using a Shimadzu HPLC with RF-551 fluorescence monitor. Excitation was at 328 nm and emission was followed at 393 nm. An Ultremex C18 guard column (30×4.6 mm, 5 micron particle size) (Phenomenex) preceded an Ultremex C18 ion-pair column (octadecylsilane, 150×4.6 mm, 3 micron particle size) (Phenomenex). Solvent A contained 0.033 M phosphoric acid and 0.008 M 1-octanesulfonic acid, adjusted to pH 2.2 with 6 N KOH. Solvent B contained 0.033 M phsophoric acid and 10% (v/v) 2-propanol, adjusted to pH 7.5 with 6 N KOH. […]

## Cc1ncc(CO)c(CN)c1O [pyridoxamine]
[1]
  inhibition of overall kinetics of AGE formation from ribose: showed the greatest inhibition at concentrations of 3 mM and above
[2]
  elevation of plasma pyridoxamine, steady state to endogenous level: approximately 300 fold
